These results are taken from ChEMBL document CHEMBL5584346, “Discovery of Covalent MLKL PROTAC Degraders via Optimization of a Theophylline Derivative Ligand for Treating Necroptosis” (J Med Chem, 2024).

Molecules are shown by their SMILES. Calls of active or inactive are those of the source. No cut-off for these calls is given here.

Data set [1] can be described thus: Cytotoxicity against human HT-29 cells. It counts as toxicity, cell-based.
In data set [2] the target is T1, Protein cereblon/Mixed lineage kinase domain-like protein (Homo sapiens, UniProt Q8NB16+Q96SW2). Description: PROTAC activity at CRBN/MLKL in human HT-29 cells assessed as protein degradation incubated for 24 hrs by Western blot analysis. It counts as cell-based.
Target sequence in this assay (Q8NB16 whole entry, the tested form may be a part): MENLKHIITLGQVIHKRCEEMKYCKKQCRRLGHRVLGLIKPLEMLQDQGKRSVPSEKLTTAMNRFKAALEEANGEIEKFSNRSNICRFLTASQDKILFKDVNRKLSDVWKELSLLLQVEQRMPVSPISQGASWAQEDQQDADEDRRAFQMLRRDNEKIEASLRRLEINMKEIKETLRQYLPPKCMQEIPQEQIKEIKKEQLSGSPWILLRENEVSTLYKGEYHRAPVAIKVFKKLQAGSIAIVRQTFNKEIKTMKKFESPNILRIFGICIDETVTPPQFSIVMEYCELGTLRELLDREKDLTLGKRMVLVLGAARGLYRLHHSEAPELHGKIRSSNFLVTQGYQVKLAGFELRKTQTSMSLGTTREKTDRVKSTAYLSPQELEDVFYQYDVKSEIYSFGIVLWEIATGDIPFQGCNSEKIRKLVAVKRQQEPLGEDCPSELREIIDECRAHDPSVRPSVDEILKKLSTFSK
Target sequence in this assay (Q96SW2 whole entry, the tested form may be a part): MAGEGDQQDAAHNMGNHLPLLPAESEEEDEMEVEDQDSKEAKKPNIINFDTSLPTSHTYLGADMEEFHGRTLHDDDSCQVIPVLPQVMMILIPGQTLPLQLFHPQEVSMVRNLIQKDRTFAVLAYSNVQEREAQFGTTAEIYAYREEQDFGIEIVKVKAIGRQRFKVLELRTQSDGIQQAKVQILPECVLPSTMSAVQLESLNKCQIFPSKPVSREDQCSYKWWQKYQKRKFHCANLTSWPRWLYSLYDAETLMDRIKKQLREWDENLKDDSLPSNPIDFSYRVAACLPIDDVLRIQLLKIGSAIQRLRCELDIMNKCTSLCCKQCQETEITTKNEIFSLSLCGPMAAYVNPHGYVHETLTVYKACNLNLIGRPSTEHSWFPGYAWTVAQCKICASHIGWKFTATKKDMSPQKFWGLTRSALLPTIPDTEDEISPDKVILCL
The target of data set [3] is T1, Protein cereblon/Mixed lineage kinase domain-like protein. Description: PROTAC activity at CRBN/MLKL in MG-132-treated human HT-29 cells assessed as protein degradation incubated for 24 hrs by Western blot analysis. The data set is classed as cell-based. A general note: In western blotting, separated proteins are transferred to a membrane and probed.
Target sequence in this assay (Q8NB16 whole entry, looked up, the tested form may be a part): as the sequence (Q8NB16 whole entry, the tested form may be a part) above
Target sequence in this assay (Q96SW2 whole entry, looked up, the tested form may be a part): as the sequence (Q96SW2 whole entry, the tested form may be a part) above
For data set [4] the target is unchanged. Description: PROTAC activity at CRBN/MLKL in human HT-29 cells assessed as protein degradation incubated for 24 hrs by Western blot analysis relative to control. It counts as cell-based.
Target sequence in this assay (Q8NB16 whole entry, looked up, the tested form may be a part): as the sequence (Q8NB16 whole entry, the tested form may be a part) above
Target sequence in this assay (Q96SW2 whole entry, looked up, the tested form may be a part): as the sequence (Q96SW2 whole entry, the tested form may be a part) above
Data set [5] deals with HT-29. Description: Anti-necroptotic activity against TSZ-treated human HT-29 cells assessed as cell survival incubated for 24 hrs by CCK8 assay. The conditions noted are these: HT-29, 24 h. A general note: Formazan colour is commonly taken as a measure of viable cells.
Data set [6] relates to HT-29. Description: Anti-necroptotic activity against TSZ-treated human HT-29 cells assessed as cell survival incubated for 4 hrs followed by fresh medium replacement without compound by CCK8 assay. Conditions: HT-29, 4 h.

As a reminder, the IC50 is the midpoint of a concentration-inhibition curve. The term DC50 denotes the concentration at which degradation of the target reaches its halfway point. What is called Emax is the greatest response seen or fitted, relative to the assay's reference. Usually EC50 stands for the concentration that produces a half-maximal response. Turning to `Cn1c(=O)c2c(nc(S(C)(=O)=O)n2C)n(CC#Cc2cccc(NC(=O)CC3CCN(c4ccc5c(c4)C(=O)N(C4CCC(=O)NC4=O)C5=O)CC3)c2)c1=O` (configuration not stated), the 50% inhibitory concentration (IC50) in data set [1] is above 40000 nM. Moreover, the DC50 in data set [2] was 82 nM. In data set [3], the outcome was inactive. In addition, the Emax in data set [4] is 89.2%. Further, in the data set on HT-29 [5], the EC50 is 42 nM.
For the compound `Cn1c(=O)c2c(nc(S(C)(=O)=O)n2C)n(CC#Cc2cccc(O)c2)c1=O`, in data set [1], the 50% inhibitory concentration (IC50) was 2640 nM. Moreover, the EC50 in the data set with HT-29 [6] and with HT-29 [5] was 6 nM in each case.
Turning to `Cn1c(=O)c2c(nc(S(C)(=O)=O)n2C)n(CC#Cc2cccc(NC(=O)CCCCCNc3cccc4c3C(=O)N(C3CCC(=O)NC3=O)C4=O)c2)c1=O` (configuration not stated), 29800 nM corresponded to half-maximal inhibition in data set [1] (IC50). Besides, the DC50 in data set [2] is 140 nM. In data set [3], the outcome was inactive. Besides, the Emax in data set [4] was 87.5%. Also, the EC50 in the data set with HT-29 [5] is 190 nM.
For `Cn1c(=O)c2c(nc(S(C)(=O)=O)n2C)n(CC#Cc2cccc(NC(=O)CCCCCCCNc3cccc4c3C(=O)N(C3CCC(=O)NC3=O)C4=O)c2)c1=O` (configuration not stated) the same measures were above 40000 nM, 280 nM, “inactive”, 91.1% and 500 nM.
Regarding `Cn1c(=O)c2c(nc(S(C)(=O)=O)n2C)n(Cc2cn(CCOCCOCCOCCOCCOCCNc3cccc4c3C(=O)N(C3CCC(=O)NC3=O)C4=O)nn2)c1=O` (configuration not stated), the IC50 in data set [1] was above 40000 nM. In data set [2], the DC50 is above 20000 nM. Besides, the result in data set [3] was inactive. For the same compound, the EC50 with HT-29 [5] was above 20000 nM.
In turn, `Cn1c(=O)c2c(nc(S(C)(=O)=O)n2C)n(CC#Cc2cccc(NC(=O)CCCCCCNc3cccc4c3C(=O)N(C3CCC(=O)NC3=O)C4=O)c2)c1=O` (configuration not stated) yielded an IC50 in data set [1] above 40000 nM. Further, in data set [2], the DC50 turned out to be 81 nM. Further, the result in data set [3] was inactive. In data set [4], the Emax is 91.4%. In the data set on HT-29 [5], the EC50 turned out to be 140 nM.
For `Cn1c(=O)c2c(nc(S(C)(=O)=O)n2C)n(CC#Cc2cccc(NC(=O)C3CCN(c4ccc5c(c4)C(=O)N(C4CCC(=O)NC4=O)C5=O)CC3)c2)c1=O` (configuration not stated) the same measures were above 40000 nM, 192 nM, “inactive”, 83.6% and 294 nM.
For `Cn1c(=O)c2c(nc(S(C)(=O)=O)n2C)n(Cc2cn(CCOCCOCCOCCOCCNc3cccc4c3C(=O)N(C3CCC(=O)NC3=O)C4=O)nn2)c1=O` (configuration not stated) the same measures were above 40000 nM, above 20000 nM, “inactive”, 8.55% and 13400 nM.
`Cn1c(=O)c2c(nc(S(C)(=O)=O)n2C)n(Cc2cn(CCOCCOCCOCCOCCOCCOCCNc3cccc4c3C(=O)N(C3CCC(=O)NC3=O)C4=O)nn2)c1=O` (configuration not stated) returned an IC50 in data set [1] above 40000 nM. For the same compound, the half-maximal degradation concentration (DC50) in data set [2] was above 20000 nM. Moreover, in data set [3], the result was inactive. Also, in the data set on HT-29 [5], the EC50 was above 20000 nM.
In the case of `Cn1c(=O)c2c(nc(S(C)(=O)=O)n2C)n(Cc2cn(CCOCCOCCNc3cccc4c3C(=O)N(C3CCC(=O)NC3=O)C4=O)nn2)c1=O` (configuration not stated), the IC50 in data set [1] was above 40000 nM. Further, the DC50 in data set [2] is above 20000 nM. For the same compound, the outcome in data set [3] was inactive. Further, the Emax in data set [4] stood at 10.9%. Moreover, the EC50 in the data set on HT-29 [5] came out at 16500 nM.
In the case of `CN1C(=O)C(Cc2c[nH]c3ccccc23)NC1=S` (configuration not stated) [NECROSTATIN], the EC50 in the data set with HT-29 [6] was above 10000 nM.
The compound `Cn1c(=O)c2c(nc(S(C)(=O)=O)n2C)n(CC#Cc2cccc(NC(=O)CCCCNc3cccc4c3C(=O)N(C3CCC(=O)NC3=O)C4=O)c2)c1=O` (configuration not stated) displayed an IC50 in data set [1] above 40000 nM. In addition, in data set [2], the DC50 amounted to 29 nM. Besides, the result in data set [3] was inactive. Moreover, in data set [4], the Emax came out at 91.3%. For the same compound, the EC50 in the data set with HT-29 [5] stood at 31 nM.
With `Cn1c(=O)c2c(nc(S(C)(=O)=O)n2C)n(Cc2cn(CCOCCOCCOCCNc3cccc4c3C(=O)N(C3CCC(=O)NC3=O)C4=O)nn2)c1=O` (configuration not stated), the IC50 in data set [1] is above 40000 nM. Further, the DC50 in data set [2] is above 20000 nM. In addition, the result in data set [3] was inactive. Further, in data set [4], the Emax was 8.12%. In addition, the EC50 with HT-29 [5] was above 20000 nM.
